Reference: ChEMBL document CHEMBL4831528, “Discovery of Novel Pterostilbene-Based Derivatives as Potent and Orally Active NLRP3 Inflammasome Inhibitors with Inflammatory Activity for Colitis” (J Med Chem, 2021)
Active and inactive are the calls of the source. The rule behind the calls is not given here.

Legend:
L02 = assay: Cytotoxicity against human L-02 cells incubated for 24 hrs by MTT assay; assay type: cell-based; details: L02, 24 h
[1] = target: NACHT, LRR and PYD domains-containing protein 3 (Mus musculus) (UniProt Q8R4B8); assay: (§1) Inhibition of NLRP3 inflammasome activation in LPS-stimulated mouse J774A.1 cells assessed as inhibition of cell pyrolysis at 20 uM incubated for 1 hr followed by ATP addition and measured after 30 mins by Hoechst 33342/propidium iodide staining based high content screening method relative to control; details: J774.A1, time 1.5 hrs
Sequence of NACHT, LRR and PYD domains-containing protein 3 (Mus musculus) (Q8R4B8 whole entry, the tested form may be a part): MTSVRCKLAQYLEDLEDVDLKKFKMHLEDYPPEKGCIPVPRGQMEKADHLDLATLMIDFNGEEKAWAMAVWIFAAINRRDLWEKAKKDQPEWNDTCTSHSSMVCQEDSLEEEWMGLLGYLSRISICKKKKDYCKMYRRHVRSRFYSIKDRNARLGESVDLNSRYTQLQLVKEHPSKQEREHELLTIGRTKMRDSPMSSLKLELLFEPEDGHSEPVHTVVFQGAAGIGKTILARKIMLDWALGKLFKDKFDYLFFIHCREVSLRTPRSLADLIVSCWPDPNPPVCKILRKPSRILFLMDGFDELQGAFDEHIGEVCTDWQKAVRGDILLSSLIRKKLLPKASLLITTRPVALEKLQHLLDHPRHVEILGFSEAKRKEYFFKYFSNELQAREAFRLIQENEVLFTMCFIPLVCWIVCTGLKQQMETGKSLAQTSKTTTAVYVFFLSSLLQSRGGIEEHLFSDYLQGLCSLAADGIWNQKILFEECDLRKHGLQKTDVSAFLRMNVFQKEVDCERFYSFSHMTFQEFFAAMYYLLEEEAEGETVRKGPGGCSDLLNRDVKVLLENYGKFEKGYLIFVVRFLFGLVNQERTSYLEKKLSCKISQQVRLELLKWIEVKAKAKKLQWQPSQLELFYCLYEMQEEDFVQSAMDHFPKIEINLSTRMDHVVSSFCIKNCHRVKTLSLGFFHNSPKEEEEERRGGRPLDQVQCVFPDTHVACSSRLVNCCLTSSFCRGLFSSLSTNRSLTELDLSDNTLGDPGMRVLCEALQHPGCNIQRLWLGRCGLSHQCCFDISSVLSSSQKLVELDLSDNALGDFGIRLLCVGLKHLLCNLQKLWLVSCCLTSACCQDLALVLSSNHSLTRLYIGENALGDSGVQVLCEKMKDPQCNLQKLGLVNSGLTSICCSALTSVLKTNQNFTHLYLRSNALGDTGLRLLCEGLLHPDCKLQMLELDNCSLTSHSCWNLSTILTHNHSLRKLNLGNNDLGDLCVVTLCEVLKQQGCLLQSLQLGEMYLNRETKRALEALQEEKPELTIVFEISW

[2] = target: NACHT, LRR and PYD domains-containing protein 3 (Mus musculus) (UniProt Q8R4B8); assay: as §1, with “10” for “20”; details: J774.A1, time 1.5 hrs
[3] = target: NACHT, LRR and PYD domains-containing protein 3 (Mus musculus, UniProt Q8R4B8); assay: Inhibition of NLRP3 inflammasome activation in LPS-stimulated mouse bone marrow-derived macrophages assessed as reduction in IL-1beta secretion preincubated for 30 mins followed by nigericin addition and measured after 30 mins by ELISA; assay type: tissue-based, Macrophage
Sequence of NACHT, LRR and PYD domains-containing protein 3 (Q8R4B8 whole entry, the tested form may be a part): as above

[4] = Half life in mouse liver microsomes preincubated for 5 mins followed by NADPH addition and measured after 5 to 60 mins by LC-MS/MS analysis; assay type: ADME, Microsome; details: time 5-60 min
[5] = Intrinsic clearance in human liver microsomes preincubated for 5 mins followed by NADPH addition and measured after 5 to 60 mins by LC-MS/MS analysis; assay type: ADME, Microsome; details: time 5-60 min, read-out: CLH
[6] = Hepatic clearance in mouse liver microsomes preincubated for 5 mins followed by NADPH addition and measured after 5 to 60 mins by LC-MS/MS analysis; assay type: ADME, Microsome; details: time 5-60 min
[7] = Intrinsic clearance in mouse liver microsomes preincubated for 5 mins followed by NADPH addition and measured after 5 to 60 mins by LC-MS/MS analysis; assay type: ADME, Microsome; details: time 5-60 min, read-out: CLH
[8] = Hepatic clearance in human liver microsomes preincubated for 5 mins followed by NADPH addition and measured after 5 to 60 mins by LC-MS/MS analysis; assay type: ADME, Microsome; details: time 5-60 min
[9] = Half life in human liver microsomes preincubated for 5 mins followed by NADPH addition and measured after 5 to 60 mins by LC-MS/MS analysis; assay type: ADME, Microsome
Macrophage = assay: Inhibition of NFkappaB activation in LPS-stimulated mouse bone marrow-derived macrophages assessed as reduction in TNFalpha secretion preincubated for 30 mins followed by nigericin addition and measured after 30 mins by ELISA; assay type: tissue-based; details: time 60.0 min

Structure (SMILES) | IC50 (L02) [µM] | inhibition [1] [%] | inhibition [2] [%] | also measured
COc1cc(/C=C/c2ccc(OCC(=O)NCc3ccc(C)cc3)cc2)c(/C=C/[N+](=O)[O-])c(OC)c1 | > 100 | 31.9 | 24.1 | –
COc1cc(/C=C/c2ccc(OCC(=O)NCc3ccncc3)cc2)c(/C=C/[N+](=O)[O-])c(OC)c1 | 63 | 65.4 | 45.3 | IC50 [3]: 7.68 µM
COc1cc(/C=C/c2ccc(OCC(=O)NCC3CCOCC3)cc2)c(/C=C/[N+](=O)[O-])c(OC)c1 | > 100 | 25.3 | 15.3 | –
COc1cc(/C=C/c2ccc(OCc3ccc(C(F)(F)F)cc3)cc2)c(-c2cnn[nH]2)c(OC)c1 | > 100 | 3.25 | – | –
COc1cc(NC(=O)COc2ccc(/C=C/c3cc(OC)cc(OC)c3/C=C/[N+](=O)[O-])cc2)cc(OC)c1 | > 100 | 39.8 | 20.1 | –
COc1cc(/C=C/c2ccc(OCC(=O)NCCc3ccccc3)cc2)c(/C=C/[N+](=O)[O-])c(OC)c1 | > 100 | 46.2 | 26.2 | –
COc1cc(/C=C/c2ccc(OCC(=O)NCc3ccccc3)cc2)c(-c2cnn[nH]2)c(OC)c1 | > 100 | 31.6 | 19.4 | IC50 [3]: > 10 µM
COc1cc(/C=C/c2ccc(OCc3ccc(C(F)(F)F)cc3)cc2)cc(OC)c1 | > 100 | 8.51 | 6.32 | IC50 [3]: > 10 µM
COc1cc(/C=C/c2ccc(NC(=O)C3CCCC3)cc2)c(/C=C/[N+](=O)[O-])c(OC)c1 | > 100 | – | 45.7 | –
COc1cc(/C=C/c2ccc(OCC(=O)NCc3ccc(Cl)cc3)cc2)c(/C=C/[N+](=O)[O-])c(OC)c1 | > 100 | 49.6 | 30.7 | –
COc1ccc2c(c1)[C@]13CCCC[C@@H]1[C@H](C2)N(C)CC3 [DEXTROMETHORPHAN] | – | – | – | half-life [4]: 16.6 min; microsomal CLint [5]: 44.5 µL/min/mg; CLhep predicted [6]: 70.6 mL/min/kg; microsomal CLint [7]: 83.3 µL/min/mg; CLhep predicted [8]: 14.8 mL/min/kg; half-life [9]: 31.2 min
COCCCOc1ccc(/C=C/c2cc(OC)cc(OC)c2/C=C/[N+](=O)[O-])cc1 | > 100 | 53.7 | 43.2 | –
O=[N+]([O-])/C=C/c1ccc2c(c1)OCO2 | 41.1 | 89.2 | 70.6 | IC50 [3]: 2.31 µM
COc1cc(/C=C/c2ccc(OCC(=O)NCc3ccccc3)cc2)cc(OC)c1 | > 100 | 15.4 | 9.65 | –
COCCOc1ccc(/C=C/c2cc(OC)cc(OC)c2/C=C/[N+](=O)[O-])cc1 | > 100 | 40.2 | 34.6 | –
C/C=C/C(=O)Nc1ccc(/C=C/c2cc(OC)cc(OC)c2/C=C/[N+](=O)[O-])cc1 | > 100 | – | 60.7 | –
COc1cc(/C=C/c2ccc(NC(=O)COC(C)=O)cc2)c(/C=C/[N+](=O)[O-])c(OC)c1 | 58.7 | – | 61 | –
COc1cc(/C=C/c2ccc(NC(=O)C(C)C)cc2)c(/C=C/[N+](=O)[O-])c(OC)c1 | > 100 | – | 69 | –
COc1cc(/C=C/c2ccc(O)cc2)c(/C=C/[N+](=O)[O-])c(OC)c1 | > 100 | 31.5 | 13.3 | IC50 [3]: > 10 µM
COc1cc(/C=C/c2ccc(NC(=O)CC(C)(C)C)cc2)c(/C=C/[N+](=O)[O-])c(OC)c1 | > 100 | – | 9.89 | –
CCCCNC(=O)COc1ccc(/C=C/c2cc(OC)cc(OC)c2/C=C/[N+](=O)[O-])cc1 | > 100 | 70.1 | 40.9 | IC50 [3]: 7.18 µM
COc1cc(/C=C/c2ccc(OCC(=O)NCc3ccc(C#N)cc3)cc2)c(/C=C/[N+](=O)[O-])c(OC)c1 | > 100 | 59.9 | 34.4 | –
COc1cc(/C=C/c2ccc(NC(=O)OC(C)(C)C)cc2)c(/C=C/[N+](=O)[O-])c(OC)c1 | > 100 | – | 24 | –
COc1cc(/C=C/c2ccc(NC(=O)CCCl)cc2)c(/C=C/[N+](=O)[O-])c(OC)c1 | > 100 | – | 70.5 | IC50 [3]: 0.76 µM
COCCOc1ccc(/C=C/c2cc(OC)cc(OC)c2-c2cnn[nH]2)cc1 | 94.5 | 26.9 | 11.3 | –
COc1cc(/C=C/c2ccc(OCC(=O)NCc3ccccc3)cc2)c(/C=C/[N+](=O)[O-])c(OC)c1 | > 100 | 57.9 | 27.9 | –

Structure (SMILES) | IC50 (L02) [µM] | inhibition [1] [%] | inhibition [2] [%] | also measured
COc1cc(/C=C/c2ccc(NC(=O)C3CCCCC3)cc2)c(/C=C/[N+](=O)[O-])c(OC)c1 | > 100 | – | 28.7 | IC50 [3]: > 10 µM
COc1ccc(NC(=O)COc2ccc(/C=C/c3cc(OC)cc(OC)c3/C=C/[N+](=O)[O-])cc2)cc1 | > 100 | 15.1 | 12.9 | –
C=CC(=O)Nc1ccc(/C=C/c2cc(OC)cc(OC)c2/C=C/[N+](=O)[O-])cc1 | > 100 | – | 71.2 | –
COc1cc(/C=C/c2ccc(OCc3ccc(C(F)(F)F)cc3)cc2)c(/C=C/[N+](=O)[O-])c(OC)c1 | > 100 | 23.7 | 17.9 | –
COc1cc(/C=C/c2ccc(OCC(=O)NC3CCCCC3)cc2)c(/C=C/[N+](=O)[O-])c(OC)c1 | > 100 | 41.8 | 25.6 | –
COCCCOc1ccc(/C=C/c2cc(OC)cc(OC)c2)cc1 | > 100 | 20.2 | 17.1 | –
C=CCCCOc1ccc(/C=C/c2cc(OC)cc(OC)c2)cc1 | > 100 | 12.1 | 11.1 | –
COc1cc(/C=C/c2ccc(OCC(=O)NCc3ccc(Br)cc3)cc2)c(/C=C/[N+](=O)[O-])c(OC)c1 | > 100 | 34.9 | 24 | IC50 [3]: 9.68 µM
COc1cc(/C=C/c2ccc(OCC(=O)NC3CCN(C(=O)OC(C)(C)C)CC3)cc2)c(/C=C/[N+](=O)[O-])c(OC)c1 | > 100 | 42.3 | 33 | –
COc1cc(/C=C/c2ccc(NC(=O)CCl)cc2)c(/C=C/[N+](=O)[O-])c(OC)c1 | 42.6 | – | 90 | –
CCC(=O)Nc1ccc(/C=C/c2cc(OC)cc(OC)c2/C=C/[N+](=O)[O-])cc1 | > 100 | – | 50.7 | –
COc1cc(/C=C/c2ccc(OCC(=O)Nc3ccc(F)cc3)cc2)c(/C=C/[N+](=O)[O-])c(OC)c1 | > 100 | 49.6 | 40.7 | –
COCCOc1ccc(/C=C/c2cc(OC)cc(OC)c2)cc1 | > 100 | 32.3 | 25.7 | –
CCCCC(=O)Nc1ccc(/C=C/c2cc(OC)cc(OC)c2/C=C/[N+](=O)[O-])cc1 | > 100 | – | 36 | –
CCCC(C)C(=O)Nc1ccc(/C=C/c2cc(OC)cc(OC)c2/C=C/[N+](=O)[O-])cc1 (stereo unspecified) | > 100 | – | 41 | –
COc1ccc(CNC(=O)COc2ccc(/C=C/c3cc(OC)cc(OC)c3/C=C/[N+](=O)[O-])cc2)cc1 | > 100 | 23.1 | 11.8 | –
C=C1C(=O)[C@]23[C@H](O)[C@H]1CC[C@H]2[C@@]12CO[C@]3(O)[C@@H](O)[C@@H]1C(C)(C)CC[C@@H]2O [ORIDONIN] | 38.2 | 83.3 | 69.5 | IC50 [3]: 0.81 µM
COc1cc(/C=C/c2ccc(O)cc2)cc(OC)c1 [PTEROSTILBENE] | > 100 | 21.2 | – | inhibition (Macrophage): Active; IC50 [3]: > 10 µM
C=CCCCOc1ccc(/C=C/c2cc(OC)cc(OC)c2/C=C/[N+](=O)[O-])cc1 | > 100 | 33.5 | 26.8 | –
COc1cc(/C=C/c2ccc(NC(C)=O)cc2)c(/C=C/[N+](=O)[O-])c(OC)c1 | > 100 | – | 56.2 | –
COc1cc(/C=C/c2ccc(NC(=O)C3CCC3)cc2)c(/C=C/[N+](=O)[O-])c(OC)c1 | > 100 | – | 55.6 | IC50 [3]: 1.41 µM
COc1cc(/C=C/c2ccc(OCC(=O)Nc3ccc(Cl)cc3)cc2)c(/C=C/[N+](=O)[O-])c(OC)c1 | > 100 | 40.1 | 22.1 | –
COc1cc(/C=C/c2ccc(OCC(=O)Nc3ccc(Br)cc3)cc2)c(/C=C/[N+](=O)[O-])c(OC)c1 | > 100 | 26.2 | 9.56 | –
C=CCCCOc1ccc(/C=C/c2cc(OC)cc(OC)c2-c2cnn[nH]2)cc1 | > 100 | – | – | –
COCC(=O)Nc1ccc(/C=C/c2cc(OC)cc(OC)c2/C=C/[N+](=O)[O-])cc1 | > 100 | – | 60 | –
CCCC(=O)Nc1ccc(/C=C/c2cc(OC)cc(OC)c2/C=C/[N+](=O)[O-])cc1 | > 100 | – | 48.9 | –
